Test results: US20230309833A1, “METHODS AND MATERIALS FOR USING [18F]-F-ARAG IN CARDIAC IMAGING” (CELLSIGHT TECHNOLOGIES INC., priority 2020, published 2023)

Assays:
CCRF-CEM cells = assay: Competition of cold 2F-AraG with 8-[3H]-AraG uptake, CCRF-CEM; type: cell-based; details: increasing 2F-AraG 1-100 µM, 60 or 120 minutes
Description: FIG. 2.3A illustrates a graph of 5 × 10^5CCRF-CEM cells were incubated, in triplicate, with 1uCi 8H^3-AraG (1mCi/ml) and increasing amounts of cold 2F-AraG or DMSO for either 60 or 120 minutes. Percent of control uptake was calculated as: measured cpm of sample/ cpm accumulated 1uCi 8[H^3]-AraG control x 100.
Previously we successfully synthesized a novel ^18F derivative of 2-deoxyguanosine analog, 9-β-D-arabinofuranosylguanine (“^18F-AraG” or “[^18F]F—AraG)”, to use as a molecular probe (FIG. 2.1). [^18F]AraG cell uptake was evaluated in leukemia cell line, CCRF-CEM, and was compared with [^3H]AraG cell uptake. […] To determine whether cold derivative 2F-AraG competes with the uptake of 8-[^3H]—AraG, we studied the [^3H]-Arag uptakes by CCRF-CEM, MOLT-4 (Leukemia cell line) and Raji (human Burkitt’s lymphoma cell line) and competition with cold 2F-AraG (FIGS. 2.3A and 2.3B). […] Competition assays indicate that cold derivative 2F-Arag competes with the uptake of the 8-[^3H]—AraG, indicating similar uptake pathways.

[1] = some patients; cited from earlier work
heart = details: cited from earlier work
[2] = molecular target: T1, deoxyguanosine kinase (dGK) (Homo sapiens, UniProt Q16854); assay: Enzyme kinetics of dGK; type: biochemical; details: dGuo positive control, unit not given
T1 sequence (Q16854 40-277): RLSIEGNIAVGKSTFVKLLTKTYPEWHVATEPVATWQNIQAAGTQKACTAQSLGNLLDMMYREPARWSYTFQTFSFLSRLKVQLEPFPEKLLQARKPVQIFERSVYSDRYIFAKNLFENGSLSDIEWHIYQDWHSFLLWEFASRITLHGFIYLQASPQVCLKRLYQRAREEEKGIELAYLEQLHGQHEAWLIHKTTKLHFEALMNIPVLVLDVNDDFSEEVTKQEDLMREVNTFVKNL
Excerpt: […]. Lines indicate best fit. […]. Lines indicate best fit. […].

colon cancer model = type: in vivo, mice; details: tumors and tumor draining lymph nodes
Excerpt: FIGS. 13A-13D show data from embodiments of the invention. FIG. 13A. […] FIG. 13B. […] White circles indicate tumor draining lymph nodes, yellow arrows point to tumors. FIG. 13C.
The discovery of the immune response that results from chemotherapy-induced tumor cell death, termed immunogenic cell death (32), has sparked interest in harnessing chemotherapy’s immunomodulatory effects for possible synergistic combinations with immunotherapeutics (33,34).

[3] = substrate: Nc1nc2c(ncn2[C@H]2C[C@H](O)[C@@H](CO)O2)c(=O)[nH]1; assay: purified protein, by the assay type; details: other: dGuo positive control, unit inferred

Nc1nc2c(ncn2[C@@H]2O[C@H](CO)[C@@H](O)[C@@H]2F)c(=O)[nH]1 [2F-AraG, 2′-Deoxy-2′-fluoro-9-β-D-arabinofuranosylguanine]
Effect on [3H]-AraG uptake (CCRF-CEM cells): decrease

Nc1nc2c(ncn2[C@@H]2O[C@H](CO)[C@@H](O)[C@@H]2O)c(=O)[nH]1 [AraG, 9-(β—D—Arabinofuranosyl)guanine]
Therapeutic serum level at which neurotoxic side effects are reported [1]: ~ 150 µM

CC(C)Oc1cccc(C=NCC(C)(C)CNCCNCC(C)(C)CN=Cc2cccc(OC(C)C)c2[O-])c1[O-].[68Ga+3].[I-] [^68Ga-Galmydar]
Cardiac uptake of tracer in doxorubicin treated animals (heart; preclinical studies): reduction in cardiac uptake

Nc1nc2c(ncn2[C@H]2C[C@H](O)[C@@H](CO)O2)c(=O)[nH]1 [dGuo, 2′-deoxyguanosine]
Vmax of dGK [2]: 123.2

COc1cccc2c1C(=O)c1c(O)c3c(c(O)c1C2=O)C[C@@](O)(C(=O)CO)C[C@@H]3O[C@H]1C[C@H](N)[C@H](O)[C@H](C)O1 [doxorubicin]
Effect of treatment on 18FDG uptake in the heart (heart; in vivo): increase

Paclitaxel/carboplatin
Change in [18F]F-AraG signal intensity after treatment (colon cancer model): did not lead to appreciable changes

B1: deoxyguanosine kinase (dGK) (Homo sapiens) (protein)
chain: RLSIEGNIAVGKSTFVKLLTKTYPEWHVATEPVATWQNIQAAGTQKACTAQSLGNLLDMMYREPARWSYTFQTFSFLSRLKVQLEPFPEKLLQARKPVQIFERSVYSDRYIFAKNLFENGSLSDIEWHIYQDWHSFLLWEFASRITLHGFIYLQASPQVCLKRLYQRAREEEKGIELAYLEQLHGQHEAWLIHKTTKLHFEALMNIPVLVLDVNDDFSEEVTKQEDLMREVNTFVKNL
Km [3]: 5.08 µM
